Target: T1, human serum albumin (HSA) (Homo sapiens, UniProt P02768)
T1 construct: gene ALB
Assay: intrinsic tryptophan fluorescence quenching titration (water, […] °C; also pH […] phosphate buffer), supported by delayed TMZ hydrolysis
Assay type: binding

T1 sequence (P02768 25-609): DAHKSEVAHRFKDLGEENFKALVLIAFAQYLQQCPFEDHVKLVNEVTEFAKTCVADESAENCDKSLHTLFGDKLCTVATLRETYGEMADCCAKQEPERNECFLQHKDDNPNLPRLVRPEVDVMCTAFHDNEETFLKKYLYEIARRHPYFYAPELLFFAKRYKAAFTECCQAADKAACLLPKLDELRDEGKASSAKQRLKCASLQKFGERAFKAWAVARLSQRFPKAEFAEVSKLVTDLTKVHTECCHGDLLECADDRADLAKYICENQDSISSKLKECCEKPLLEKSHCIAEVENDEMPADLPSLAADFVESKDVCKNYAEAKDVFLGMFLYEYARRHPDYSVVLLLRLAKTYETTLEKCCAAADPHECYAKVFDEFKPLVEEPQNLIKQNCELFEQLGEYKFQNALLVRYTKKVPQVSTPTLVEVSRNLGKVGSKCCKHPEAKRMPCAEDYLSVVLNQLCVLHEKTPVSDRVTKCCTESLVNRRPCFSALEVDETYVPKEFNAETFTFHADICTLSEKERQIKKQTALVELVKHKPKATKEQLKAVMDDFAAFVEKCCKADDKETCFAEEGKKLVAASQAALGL

Work on Cn1nnc2c(C(N)=O)ncn2c1=O [TMZ, Temozolomide] yielded a Kd of ~200 µM.

Source: PMC7408562, “The Interaction of Temozolomide with Blood Components Suggests the Potential Use of Human Serum Albumin as a Biomimetic Carrier for the Drug” (Biomolecules, 2020)
